Data published in patent publication US20190137505A1 (THE ARIZONA BOARD OF REGENTS ON BEHALF OF THE UNIVERSITY OF …, priority 2015, published 2019).

Assays:
[1] = target: T1, plasminogen (Pg) (Homo sapiens, UniProt P00747); assay: Chromogenic activity assay: activation of unmodified and MG-modified Pg to plasmin by tPA, uPA or STK on a fibrin matrix; assay type: biochemical; conditions: p<0.05
T1 construct: Glu-Pg, uPA, tPA, fibrinogen, and chromogenic substrate for Pn were purchased from Molecular Innovations (Novi, Mich.); purchased Molecular Innovations (Novi, Mich.)
T1 sequence (P00747 20-810 limits assumed): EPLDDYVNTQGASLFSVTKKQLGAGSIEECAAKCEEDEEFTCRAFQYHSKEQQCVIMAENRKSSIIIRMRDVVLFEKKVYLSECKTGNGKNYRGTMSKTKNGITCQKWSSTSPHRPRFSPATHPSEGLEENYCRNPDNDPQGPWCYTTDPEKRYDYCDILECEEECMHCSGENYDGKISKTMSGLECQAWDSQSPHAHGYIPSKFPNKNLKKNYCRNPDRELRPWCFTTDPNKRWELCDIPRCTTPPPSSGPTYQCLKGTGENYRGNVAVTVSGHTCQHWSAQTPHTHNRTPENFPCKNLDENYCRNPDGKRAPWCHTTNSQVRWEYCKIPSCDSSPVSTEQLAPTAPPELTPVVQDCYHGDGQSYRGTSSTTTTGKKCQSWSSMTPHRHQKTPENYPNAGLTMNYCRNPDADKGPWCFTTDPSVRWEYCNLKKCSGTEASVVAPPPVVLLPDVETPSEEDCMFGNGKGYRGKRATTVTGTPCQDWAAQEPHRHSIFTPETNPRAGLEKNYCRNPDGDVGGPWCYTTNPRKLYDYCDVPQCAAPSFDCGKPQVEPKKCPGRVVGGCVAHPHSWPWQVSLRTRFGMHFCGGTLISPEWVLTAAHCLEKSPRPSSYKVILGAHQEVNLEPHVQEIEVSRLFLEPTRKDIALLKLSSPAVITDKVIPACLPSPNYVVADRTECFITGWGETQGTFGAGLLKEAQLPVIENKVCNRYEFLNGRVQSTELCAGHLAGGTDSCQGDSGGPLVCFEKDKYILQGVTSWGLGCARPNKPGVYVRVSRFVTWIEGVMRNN
Method: (§1) 10 μg Pg was incubated with MG (50-500 μM) in tris-buffered saline (TBS) for 24 hours at 37° C. Following modification, sample volumes were increased to 150 μL and placed in 5 kDa spin filters to reduce volume and remove excess MG from solution.
96-well plate was incubated with 200 μL of 260 nM fibrinogen in TBS for 40 min at room temperature. Fibrinogen solution was removed and replaced with 250 μL TBS containing 3% bovine serum albumin and 0.01% TWEEN for 90 minutes at 37° C. Blocking solution was removed and the plate was washed twice with solution of 50 mM Tris-HCl, 110 mM NaCl and 0.01% TWEEN (pH 7.4). 5 units/mL of thrombin and 5 mM CaCl2 in 50 mM Tris-HCl, 110 mM NaCl (pH 7.4) was added to the wells for 45 min. A high salt wash (1 M NaCl, 50 mM Tris-HCl, pH 7.4) followed by a TBS-TWEEN wash completed plate prep.
Into each well 198 μL of 10 mM HEPES/150 mM NaCl (pH 7.4) was added. Into each well, 2 μL of 25 mM chromogenic substrate for Pn (D-VLK-pNA) was added. To appropriate wells were added 2 μL of 20 μM Pg, either a 24-hour unmodified control or 24 hour 50-500 μM MG modified. Activators were added to respective wells to test activation of unmodified and modified Pg. 2 μL of each activator enzyme was utilized in appropriate wells for tPA (1.2 μM), uPA (5 μM) and STK (500 nM). Following enzyme addition, plate was immediately read on a SpectraMax M2 plate reader (Molecular Devices) every minute for 90 minutes at an absorbance of 405 nm.
Pg (10 μg) was incubated with MG (50-500 μM) in 10 mM HEPES/150 mM NaCl (pH 7.4) for 24 hours at 37° C. Following modification, sample volumes were increased to 150 μL and placed in 5 kDa spin filters to reduce volume and remove excess MG from solution. A 96-well plate was incubated with 200 μL of 260 nM fibrinogen in TBS for 40 min. at room temperature. Fibrinogen solution was removed and replaced with 250 μL TBS containing 3% bovine serum albumin and 0.01% TWEEN for 90 minutes at 37° C. Blocking solution was removed and the plate was washed twice with solution of 50 mM Tris-HCl, 110 mM NaCl and 0.01% TWEEN (pH 7.4). Thrombin (5 units/mL) and 5 mM CaCl2 in 50 mM Tris-HCl, 110 mM NaCl (pH 7.4) was added to the wells for 45 min. A high salt wash (1M NaCl, 50 mM Tris-HCl, pH 7.4) followed by a TBS-TWEEN wash completed plate prep. Into each well, 198 μL of 10 mM HEPES/150 mM NaCl (pH 7.4) and 2 μL of 25 mM chromogenic substrate for Pn (D-VLK-pNA) were added. To appropriate wells were added 2 μL of 20 μM Pg, either a 24-hour unmodified control or 24 hour 50-500 μM MG modified. Activators were added to respective wells to test activation of unmodified and modified Pg. Each activator enzyme (2 μL) was utilized in appropriate wells for tPA (12 nM), uPA (50 nM) and STK (5 nM) (Ajjan et al., 2013, Zhang et al., 2012). Following enzyme addition, plate was immediately read on a SpectraMax M2 plate reader (Molecular Devices) every minute for 90 minutes at an absorbance of 405 nm.

[2] = target: T2, HSA drug site I (Homo sapiens, UniProt P02768); assay: Prodan displacement assay; assay type: binding; conditions: prodan-HSA 75 μM; 30 min; fluorescence 465 nm emission
T2 construct: purchased Sigma-Aldrich A3782
T2 sequence (P02768 25-609): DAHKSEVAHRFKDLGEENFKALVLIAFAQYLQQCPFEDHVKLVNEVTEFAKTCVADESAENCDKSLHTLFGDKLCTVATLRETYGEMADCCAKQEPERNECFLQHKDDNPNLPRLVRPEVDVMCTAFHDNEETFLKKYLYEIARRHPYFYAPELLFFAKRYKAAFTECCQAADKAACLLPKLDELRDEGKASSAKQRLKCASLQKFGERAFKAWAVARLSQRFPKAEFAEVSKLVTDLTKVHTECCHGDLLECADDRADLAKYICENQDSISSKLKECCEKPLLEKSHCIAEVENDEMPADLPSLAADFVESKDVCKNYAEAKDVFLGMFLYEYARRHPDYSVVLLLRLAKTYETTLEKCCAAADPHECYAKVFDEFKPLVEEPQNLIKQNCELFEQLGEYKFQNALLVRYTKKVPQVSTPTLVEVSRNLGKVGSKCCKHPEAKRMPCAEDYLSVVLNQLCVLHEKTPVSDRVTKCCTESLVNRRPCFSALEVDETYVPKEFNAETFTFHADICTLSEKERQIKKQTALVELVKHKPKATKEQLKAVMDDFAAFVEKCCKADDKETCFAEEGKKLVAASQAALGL
Method: A solution of human serum albumin (HSA) (20 ml at 10 mg/ml) in 1×PBS pH 7.4 was prepared. A slurry (10 ml) of Lipidex-1000 in methanol was buffer exchanged into 1×PBS and the buffer decanted from the aqueous slurry. The HSA solution was added to the slurry and the mixture was rotated at room temperature for 30 min. The Lipidex slurry was completely removed from HSA by plunging through a 0.22 μm filter using a 60 ml syringe. Prodan (25 mg) was dissolved in of 40% ethanol, 60% methanol (5 ml at a final concentration is 5 mg/ml). A portion (10 ml) of delipidated HSA (10 mg/ml) was incubated with 666.7 μl of the prodan solution (1:10 molar ratio HSA:prodan), and this mixture was rotated at room temperature for 30 minutes. The HSA-prodan mixture was placed on dry ice and acetone precipitated by adding 40 ml of acetone at −20° C., which was mixed and centrifuged at 3000×g for 10 min to pellet the precipitated HSA-prodan. Two additional washes of cold acetone were used to remove any free prodan. The HSA pellet was brought to 10 ml with PBS and mixed and resuspended.
A 2-fold serial dilution of MG in 1×PBS pH 7.4 was prepared starting from a stock solution of 10 mM. […] An aliquot (300 μl) of each reaction was read using a Gemini XPS Fluorescence Microplate Reader (Molecular Devices) in endpoint mode with 360 nm excitation, 420 nm filter cut-off, and 465 nm emission.

[3] = target: T3, Pg (Homo sapiens, UniProt P00747); assay: Two-dimensional gel electrophoresis of MG-modified Pg (isoelectric point shift); assay type: physicochemical; conditions: 24-hr 500 μM MG; 4-7 pH isoelectric focusing strip
T3 construct: Glu-Pg, uPA, tPA, fibrinogen, and chromogenic substrate for Pn were purchased from Molecular Innovations (Novi, Mich.); purchased Molecular Innovations (Novi, Mich.)
T3 sequence (P00747 20-810 limits assumed): as the sequence (P00747 20-810 limits assumed) above
Method: as §1
MG-modified (500 μM) and unmodified Pg control (same incubation conditions without MG) were added to 250 μL amount of rehydration buffer (6M urea, 2M thiourea, 2% CHAPS, 100 mM DTT, 0.5% 3-10 ampholytes) and 5 μL of 3-10 ampholytes (Bio-Rad). Sample rehydrated with a 13 cm 4-7 pH isoelectric focusing strip (GE Healthcare) overnight. Following rehydration, strips were placed in a Bio-Rad PROTEAN IEF Cell focusing instrument. Strips were first focused for 1 hour at 500 V, and then run at a maximum of 8,000V until the strips have reached a final total of 45,000 V/hrs at which point gels are held at 500V until removed. Focused strips were removed, reduced with DTT, cysteines carbamidomethylated with iodoacetamide, and run on a 4-20% gradient Criterion gel for 55 minutes at 200V. Gels were stained for stained according to manufacturer instructions with Imperial Blue Protein (ThermoScientific, Rockford, Ill.) and destained immediately with water. Gel bands were excised and trypsin digested.

Structure (SMILES): CC(=O)C=O [MG, Methylglyoxal]
- time at which significant delay in activation of MG-modified Pg is detectable ([1]; STK 5 nM, Pg modified 24 hours with 100 μM MG): 16 min
- time at which significant delay in activation of MG-modified Pg is detectable ([1]; STK 5 nM, Pg modified 24 hours with 500 μM MG): 12 min
- time at which significant delay in activation of MG-modified Pg is detectable ([1]; tPA 12 nM, Pg modified 24 hours with 100 μM MG): 30 min
- time at which significant delay in activation of MG-modified Pg is detectable ([1]; tPA 12 nM, Pg modified 24 hours with 500 μM MG): 28 min
- time at which significant delay in activation of MG-modified Pg is detectable ([1]; uPA 50 nM, Pg modified 24 hours with 500 μM MG): 37 min
- MG concentrations that displace prodan from prodan-HSA complex [2]: above 300 μM
- pI of MG-modified Pg [3]: 5.8-6.7
